From patent US6596733B2, “Use of nitric oxide scavengers to treat side effects caused by therapeutic administration of sources of nitric oxide” (Medinox, Inc., priority 1998, dated 2003)

Key:
[1] = 10 mg/ml in drinking water for 14 days
Procedure: (§1) A pressure sensor chip for a telemetric device (Data Scientific International, Saint Paul, Minn.) was implanted in the dorsal abdominal aorta of male Wistar rat (250-280 g). The rats were allowed to recover from the surgery over a period of 24 hours. The implanted rats were separated into two groups (n=3); One received 10 mg/ml of L-proline dithiocarbamate (L-PD) in drinking water and the other received only distilled water for 14 days. […] On average, in the experimental group, each rat received about 800 mg/kg/day for 14 days.

[2] = system: rats having physiological levels of nitric oxide; settings: rat, in vivo
Procedure: as §1

Q: For `NC(=S)S.O=C(O)[C@@H]1CCCN1` [L-PD, L-proline dithiocarbamate], which “amounts of water consumption, experimental vs control group” value [1] is on record?
A: no significant difference

Q: What about the “weight gain, experimental vs control group” value [1] of the same molecule?
A: no significant difference

Q: And the “effect on blood pressure” value [2]?
A: no effect

Q: And the “effect on heart rate” value [2]?
A: no effect
